Measured values reported in patent publication US20240368149A1, “ANALOGS OF XANOMELINE” (Terran Biosciences Inc., priority 2023, published 2024).
Where two headings read alike, the source gives them in different places.

What was measured:
[1] = Rat PK: plasma prodrug concentration after intramuscular (IM) dosing of xanomeline prodrugs at 5 mg/kg (Example A-4); type: in vivo, male Sprague-Dawley (SD) rats; conditions: male, Sprague-Dawley, IM 5 mg/kg of xanomeline; for Cmax / AUC(0-inf) / AUC(0-t): im; for AUC(0-inf): read-out: Prodrug AUCINF_obs; for AUC(0-t): read-out: Prodrug AUClast; for concentration at 0.5 h: 0.500 h
Protocol: (§1) • Step 1: A stock solution of the compound(s) were prepared to 1 mg/ml in DMSO • Step 2: A 10,000 ng/mL matched matrix standard was prepared using the stock solution(s) • Step 3: Calibration standards in matched matrix were prepared between 10,000 ng/ml and 0.5 ng/mL using serial dilution • Step 4: QC samples were prepared in matched matrix at 4000, 800, 400, 40 and 10 ng/mL
(§2) • Step 1: Add 10 μL of the standards, QCs and samples to a 96-well plate (extraction plate) • Step 2: To each standard, QC and test sample, add 100 μL of ISZ • Step 3: Sonicate for 2 min then mix the plate for approximately 2 min at 1200 rpm on a plate shaker • Step 4: Centrifuge the plate at 3000 rpm for 5 min • Step 5: Add 50 μL 0.1% formic acid in UP H2O to wells of a new 96-well plate • Step 6: Transfer 50 μL extracted sample to relevant position in second 96-well plate • Step 7: Mix at 1200 rpm for 2 min • Step 8: Heat seal and analyse on the LC-MS/MS system • Instrument: Xevo TQ-D with CTC Autosampler
(§3) Samples were sent for method optimization and measurement of prodrug via unique calibration lines and following acceptance QC's. Dose formulation concentrations were also measured, and PK parameters were determined (Cmax (ng/mL), Tmax (hr), Cl (ml/min/kg), Vdss (L/kg), t½ (hr), AUC0-t (ng/mL*hr), AUC0-inf (ng/mL*hr), MRT (hr), Bioavailability (% F) where warranted) using WinNon Lin software. Data (including bioanalytical results and assay performance) were reported in a tabulated format and QC'd.
Formulation for IM administration: All compounds were formulated as solutions or fine suspensions in saline at 12.5 mg API/mL. This provided doses of 5 mg/kg (equivalent of xanomeline) when given to a 250 g rat in a 100 μL dosing volume.
The pharmacokinetic properties of the synthesized xanomeline prodrugs after intramuscular administration in a rat model were assessed. The concentration of prodrug was measured in each rat at various sampling timepoints after intramuscular administration of the synthesized xanomeline prodrugs to rats.
Dose formulations were made at equivalent concentrations of active compound (xanomeline) adjusted for molecular weight of the compounds. The synthesized xanomeline prodrugs were dosed at 5 mg/kg intramuscular (IM) nominal dose. Nominal doses were used in PK parameter determinations.

[2] = Rat PK: plasma prodrug concentration after intravenous (IV) dosing of xanomeline prodrugs at 1 mg/kg (Example A-6); type: in vivo, male Sprague-Dawley (SD) rats; conditions: male, Sprague-Dawley, IV 1 mg/kg of xanomeline; for concentration at 0.25 h / concentration at 0.5 h / concentration at 0.75 h / Cmax / AUC(0-inf) / AUC(0-t): iv, 1 mg/kg; for concentration at 0.25 h: 0.250 h; for concentration at 0.25 h / concentration at 0.5 h / concentration at 0.75 h: read-out: Prodrug Plasma Concentrations Following Intravenous Dosing; for concentration at 0.5 h: 0.500 h; for concentration at 0.75 h: 0.750 h; for AUC(0-inf): read-out: Prodrug AUCINF_obs; for AUC(0-t): read-out: Prodrug AUClast
Protocol: as §1, §2, §3
Compound was dissolved in DMSO:HPCD (20% w/v in water) [10:90] 0.5 mg API/mL to provide doses of 1 mg/kg when administered IV in a 2 mL/kg dosing volume.
The pharmacokinetic properties of the synthesized xanomeline prodrugs after intravenous administration in a rat model were assessed. The concentration of prodrug was measured in each rat at various sampling timepoints after intravenous administration of the synthesized xanomeline prodrugs to rats.
Dose formulations were made at equivalent concentrations of active compound (xanomeline) adjusted for molecular weight of the compounds. The synthesized xanomeline prodrugs were dosed at 1 mg/kg intravenous (IV) nominal dose. Nominal doses were used in PK parameter determinations.

[3] = 5 mg/kg, analyte prodrug, individual animals
[4] = intramuscular, 5 mg/kg, Mean, read-out: Prodrug Plasma Concentrations Following Intramuscular Dosing
[5] = intramuscular, 5 mg/kg, individual animals, read-out: Prodrug Plasma Concentrations Following Intramuscular Dosing
[6] = analyte prodrug, individual animals

Compound CCCCCCOc1nsnc1C1=CCC[N+](C)(C(C)OC(=O)C(C)(C)C)C1 (stereo not drawn) [Compound 19] has a Tmax ([1]; analyte prodrug, Mean) of 30 min, a Cmax ([1]; 5 mg/kg, analyte prodrug, Mean) of 218 ng/mL and an AUC(0-inf) ([1]; 5 mg/kg, analyte prodrug, Mean) of 697 ng·h/mL. For the same compound, the AUC(0-t) ([1]; 5 mg/kg, analyte prodrug, Mean) was 618 ng·h/mL, the Cmax [1, 3] was 284 ng/mL and the AUC(0-inf) [1, 3] was 891 ng·h/mL. For the same compound, the AUC(0-t) [1, 3] was 667 ng·h/mL, the concentration at 0.5 h [1, 4] was 218 ng/mL and the concentration at 0.5 h [1, 5] was 284 ng/mL. It also gave a concentration at 1 h [1, 4] of 128 ng/mL, a concentration at 1 h [1, 5] of 115 ng/mL and a concentration at 2 h [1, 4] of 83 ng/mL. It also gave a concentration at 2 h [1, 5] of 80.2 ng/mL, a concentration at 4 h [1, 4] of 35.9 ng/mL and a concentration at 4 h [1, 5] of 38.6 ng/mL. It also gave a concentration at 8 h ([1]; intramuscular, 5 mg/kg, 8.00 h, Mean, read-out: Prodrug Plasma Concentrations Following Intramuscular Dosing) of 13.7 ng/mL, a concentration at 24 h ([1]; intramuscular, 5 mg/kg, 24.0 h, Mean, read-out: Prodrug Plasma Concentrations Following Intramuscular Dosing) of 1.59 ng/mL and a concentration at 31 h [1, 4] of 1.04 ng/mL. For the same compound, the concentration at 31 h [1, 5] was 1.01 ng/mL, the concentration at 48 h [1, 4] was 0.666 ng/mL and the concentration at 48 h [1, 5] was 0.775 ng/mL. The concentration at 96 h [1, 4] was 0.255 ng/mL, the concentration at 96 h [1, 5] was 0.764 ng/mL and the Tmax [2, 6] was 15 min. The concentration at 0.25 h ([2]; Mean) was 27.2 ng/mL, the concentration at 0.25 h ([2]; individual animals) was 35.4 ng/mL and the concentration at 0.5 h ([2]; Mean) was 11.8 ng/mL. The concentration at 0.5 h ([2]; individual animals) was 15.2 ng/mL, the concentration at 0.75 h ([2]; Mean) was 7.1 ng/mL and the concentration at 0.75 h ([2]; individual animals) was 8.62 ng/mL. It also gave a Cmax ([2]; analyte prodrug, Mean) of 27.2 ng/mL, an AUC(0-inf) ([2]; analyte prodrug, Mean) of 22.9 ng·h/mL and an AUC(0-t) ([2]; analyte prodrug, Mean) of 17.8 ng·h/mL. It also gave a Cmax [2, 6] of 35.4 ng/mL, an AUC(0-inf) [2, 6] of 27.1 ng·h/mL and an AUC(0-t) [2, 6] of 24 ng·h/mL.
